Data reported in the CheMixHub ionic liquid set.
± gives the uncertainty stated by the source.

Assay: xn = mol fraction of the nth substance listed

SMILES: CCCC[N+](CCCC)(CCCC)CCCC.[Cl-] + O=C(O)[C@@H]1CCCN1
- electrical conductivity (313.15 K, 100 kPa, x1 = 0.875): 0.0343 S/m
- viscosity (313.15 K, 100 kPa, x1 = 0.875): 389 ± 41 mPa·s
- electrical conductivity (313.15 K, 100 kPa, x1 = 0.8889): 0.0137 S/m
- viscosity (313.15 K, 100 kPa, x1 = 0.8889): 901 ± 96 mPa·s
- electrical conductivity (313.15 K, 100 kPa, x1 = 0.9): 0.0446 S/m
- viscosity (313.15 K, 100 kPa, x1 = 0.9): 1051 ± 110 mPa·s
- electrical conductivity (323.15 K, 100 kPa, x1 = 0.875): 0.0411 S/m
- viscosity (323.15 K, 100 kPa, x1 = 0.875): 172 ± 18 mPa·s
- electrical conductivity (323.15 K, 100 kPa, x1 = 0.8889): 0.0249 S/m
- viscosity (323.15 K, 100 kPa, x1 = 0.8889): 306 ± 32 mPa·s
- electrical conductivity (323.15 K, 100 kPa, x1 = 0.9): 0.0612 S/m
- viscosity (323.15 K, 100 kPa, x1 = 0.9): 534 ± 56 mPa·s
- electrical conductivity (333.15 K, 100 kPa, x1 = 0.875): 0.065 S/m
- viscosity (333.15 K, 100 kPa, x1 = 0.875): 97.5 ± 9.9 mPa·s
- electrical conductivity (333.15 K, 100 kPa, x1 = 0.8889): 0.0423 S/m
- viscosity (333.15 K, 100 kPa, x1 = 0.8889): 171 ± 17 mPa·s
- electrical conductivity (333.15 K, 100 kPa, x1 = 0.9): 0.0869 S/m
- viscosity (333.15 K, 100 kPa, x1 = 0.9): 233 ± 24 mPa·s
- electrical conductivity (343.15 K, 100 kPa, x1 = 0.875): 0.0965 S/m
- viscosity (343.15 K, 100 kPa, x1 = 0.875): 54.2 ± 5.5 mPa·s
- electrical conductivity (343.15 K, 100 kPa, x1 = 0.8889): 0.0735 S/m
- viscosity (343.15 K, 100 kPa, x1 = 0.8889): 85 ± 9 mPa·s
- electrical conductivity (343.15 K, 100 kPa, x1 = 0.9): 0.11 S/m
- viscosity (343.15 K, 100 kPa, x1 = 0.9): 131 ± 13 mPa·s
- electrical conductivity (353.15 K, 100 kPa, x1 = 0.875): 0.127 S/m
- viscosity (353.15 K, 100 kPa, x1 = 0.875): 32.1 ± 3.2 mPa·s
- electrical conductivity (353.15 K, 100 kPa, x1 = 0.8889): 0.108 S/m
- viscosity (353.15 K, 100 kPa, x1 = 0.8889): 53.8 ± 5.4 mPa·s
- electrical conductivity (353.15 K, 100 kPa, x1 = 0.9): 0.142 S/m
- viscosity (353.15 K, 100 kPa, x1 = 0.9): 77.3 ± 7.8 mPa·s

SMILES: CCCC[n+]1ccn(C)c1.[Br-] + O=C(O)c1cccnc1 + O
- viscosity (293.15 K, 100 kPa, x2 = 0, x1 = 0.0009002): 1.033 ± 0.032 mPa·s
- viscosity (293.15 K, 100 kPa, x2 = 0, x1 = 0.001799): 1.057 ± 0.032 mPa·s
- viscosity (293.15 K, 100 kPa, x2 = 0, x1 = 0.002696): 1.069 ± 0.032 mPa·s
- viscosity (298.15 K, 100 kPa, x2 = 0, x1 = 0.0009002): 0.918 ± 0.031 mPa·s
- viscosity (298.15 K, 100 kPa, x2 = 0, x1 = 0.001799): 0.938 ± 0.031 mPa·s
- viscosity (298.15 K, 100 kPa, x2 = 0, x1 = 0.002696): 1 ± 0.031 mPa·s
- viscosity (303.15 K, 100 kPa, x2 = 0, x1 = 0.0009002): 0.823 ± 0.031 mPa·s
- viscosity (303.15 K, 100 kPa, x2 = 0, x1 = 0.001799): 0.84 ± 0.031 mPa·s
- viscosity (303.15 K, 100 kPa, x2 = 0, x1 = 0.002696): 0.905 ± 0.031 mPa·s
- viscosity (308.15 K, 100 kPa, x2 = 0, x1 = 0.0009002): 0.753 ± 0.031 mPa·s
- viscosity (308.15 K, 100 kPa, x2 = 0, x1 = 0.001799): 0.758 ± 0.031 mPa·s
- viscosity (308.15 K, 100 kPa, x2 = 0, x1 = 0.002696): 0.795 ± 0.031 mPa·s
- viscosity (313.15 K, 100 kPa, x2 = 0, x1 = 0.0009002): 0.676 ± 0.031 mPa·s
- viscosity (313.15 K, 100 kPa, x2 = 0, x1 = 0.001799): 0.689 ± 0.031 mPa·s
- viscosity (313.15 K, 100 kPa, x2 = 0, x1 = 0.002696): 0.749 ± 0.031 mPa·s
- viscosity (318.15 K, 100 kPa, x2 = 0, x1 = 0.0009002): 0.619 ± 0.031 mPa·s
- viscosity (318.15 K, 100 kPa, x2 = 0, x1 = 0.001799): 0.631 ± 0.031 mPa·s
- viscosity (318.15 K, 100 kPa, x2 = 0, x1 = 0.002696): 0.68 ± 0.031 mPa·s

SMILES: CC[n+]1ccn(C)c1.[Cl-] + O=C[C@H](O)[C@@H](O)[C@H](O)[C@H](O)CO
- viscosity (373 K, 100 kPa, x2 = 0): 36 ± 14 mPa·s
- viscosity (373 K, 100 kPa, x2 = 0.0419): 66 ± 26 mPa·s

SMILES: CC[n+]1ccn(C)c1.[Cl-] + O=C[C@H](O)[C@@H](O)[C@H](O)[C@H](O)CO + CC#N
- viscosity (373 K, 100 kPa, x2 = 0, x1 = 0.359): 3 ± 1 mPa·s
- viscosity (373 K, 100 kPa, x2 = 0.002991, x1 = 0.3578): 3 ± 1 mPa·s
- viscosity (373 K, 100 kPa, x2 = 0.01533, x1 = 0.3535): 4 mPa·s
- viscosity (373 K, 100 kPa, x2 = 0.0316, x1 = 0.3476): 5 ± 2 mPa·s
- viscosity (373 K, 100 kPa, x2 = 0.04909, x1 = 0.3413): 6 ± 2 mPa·s

SMILES: CC[P+](CC)(CC)CCOC.O=S(=O)([N-]S(=O)(=O)C(F)(F)F)C(F)(F)F + O=S(=O)([N-]S(=O)(=O)C(F)(F)F)C(F)(F)F.[Li+]
- electrical conductivity (298.2 K, 101.33 kPa, x2 = 0.25): 1 ± 0.1 S/m
- viscosity (298.2 K, 101.33 kPa, x2 = 0.25): 170 ± 6 mPa·s
- electrical conductivity (312.2 K, 101.33 kPa, x2 = 0.39): 0.8 ± 0.01 S/m
- viscosity (355.3 K, 101.33 kPa, x2 = 0.25): 17 ± 1 mPa·s
- electrical conductivity (361.3 K, 101.33 kPa, x2 = 0.39): 1.5 ± 0.1 S/m

SMILES: CCCC[N+](CCCC)(CCCC)CCCC.[Cl-] + OCC(O)CO
- electrical conductivity (293.15 K, 100 kPa, x1 = 0.333): 0.0303 ± 0.003 S/m
- viscosity (293.15 K, 100 kPa, x1 = 0.333): 870 ± 320 mPa·s
- electrical conductivity (303.15 K, 100 kPa, x1 = 0.333): 0.0527 ± 0.0053 S/m
- viscosity (303.15 K, 100 kPa, x1 = 0.333): 500 ± 150 mPa·s
- electrical conductivity (313.15 K, 100 kPa, x1 = 0.333): 0.0885 ± 0.0089 S/m
- viscosity (313.15 K, 100 kPa, x1 = 0.333): 298 ± 70 mPa·s
- electrical conductivity (323.15 K, 100 kPa, x1 = 0.333): 0.144 ± 0.014 S/m
- viscosity (323.15 K, 100 kPa, x1 = 0.333): 184 ± 31 mPa·s
- electrical conductivity (333.15 K, 100 kPa, x1 = 0.333): 0.228 ± 0.023 S/m
- viscosity (333.15 K, 100 kPa, x1 = 0.333): 117 ± 13 mPa·s

SMILES: CC[n+]1ccn(C)c1.[Cl-] + OCC(O)CO
- viscosity (303.15 K, 100 kPa, x1 = 0.333): 126.9 ± 2.8 mPa·s
- viscosity (313.15 K, 101 kPa, x1 = 0.667): 135.5 ± 6.2 mPa·s
